Measured values from US6802882B2, “Nitrification inhibitors, and the use of polyacids which contain a nitrification inhibitor for the treatment of inorganic fertilizers” (BASF Aktiengesellschaft, priority 1996, dated 2004).

Columns and labels:
[1] = Storage stability rapid test of treated inorganic fertilizers (loss of nitrification inhibitor); type: physicochemical; details: on ammonium sulfate nitrate carrier fertilizer; 4 weeks at 30° C., 40 to 50% relative atmospheric humidity, approx. 1.2 m/s air velocity
Experimental: The carrier fertilizer used was ammonium sulfate nitrate (ASN). 2 g of pyrazole were dissolved in a little water, and if desired (see Table I) the solution was mixed with a stoichiometric amount of phosphoric acid (1:1) and with from 1 to 10 g of polyacrylic acid or polyphosphoric acid. […] of the carrier fertilizer in the form of granules were prewarmed to approximately 50° C. and slowly sprayed onto a turntable with the mixture containing the pyrazole compound. To accelerate the drying, drying was carried out with hot air, either at the end of the spraying or after interruption of the spraying.
The storage stability of the treated inorganic fertilizers was determined in a rapid test in which the nitrification-inhibited inorganic fertilizers were stored in a ventilated warming cabinet for 4 weeks at 30° C., from 40 to 50% relative atmospheric humidity and approximately 1.2 m/s air velocity. The concentration of nitrification inhibitor on the inorganic fertilizer was determined before and after storage and the loss of nitrification inhibitor determined in percent. Approximately 10 to 30 g of treated inorganic fertilizer were stored in each case. The concentration of pyrazole compound as nitrification inhibitor in this case was from 0.05% by weight to 0.2% by weight at the start of the investigation, based on the treated inorganic fertilizer.

[2] = tested on: nitrification; assay: Nitrification inhibiting effect of different pyrazoles; design: concentration or dose not given beside the values
[3] = tested on: nitrification; assay: Field tests: NO3- and NH4-N-amounts in soil; type: in vivo; details: for Ø NH4-N amount in soil / Ø NO3-N amount in soil: n = 5, locations 1-5; for biological effectiveness (in words): field tests, results of table 1, reduced amounts of the active substance versus DCD
Experimental: The biological effectiveness of 4-chloro-3-methylpyrazole (4 Cl-3MP) and 3,4-dimethylpyrazole (3,4-DMP) in comparison with DCD and the control was tested in multiple field tests in different environments by means of the features “nitrate content in the basis of the stem”, “NO3— and NH4—N-content in the soil” as well as “grain produce”.
The standard methods used in agricultural tests were applied to the laying-out, probing, harvesting and evaluation of the field tests.
The analysis of the plant and soil samples followed standard procedures. The remaining measures undertaken in the production, e.g. plant protection, were in accordance with good agricultural practice and were applied uniformly.

[4] = tested on: rape plants; assay: Field tests: NO3 amount in the basis of the stem of rape plants; type: in vivo; details: n = 5, locations 1-5
Experimental: (§1) The biological effectiveness of 4-chloro-3-methylpyrazole (4 Cl-3MP) and 3,4-dimethylpyrazole (3,4-DMP) in comparison with DCD and the control was tested in multiple field tests in different environments by means of the features “nitrate content in the basis of the stem”, “NO3— and NH4—N-content in the soil” as well as “grain produce”. The standard methods used in agricultural tests were applied to the laying-out, probing, harvesting and evaluation of the field tests. The analysis of the plant and soil samples followed standard procedures. The remaining measures undertaken in the production, e.g. plant protection, were in accordance with good agricultural practice and were applied uniformly. As a consequence of this treatment the nitrate consumption of the plants is reduced (compare NO3-content in the basis of the stem of rape plants, table 2) and the produce is enhanced (compare grain produce of winter wheat, tables 3a and 3b).

[5] = tested on: winter wheat; assay: Field tests: grain produce of winter wheat; type: in vivo
Experimental: as §1

Cc1[nH]ncc1Cl.O=P(O)(O)O [4-Chloro-3-methylpyrazole phosphate, 4-chloro-3-methylpyrazolium dihydrogen Phosphate]
Loss in percent (loss of nitrification inhibitor during storage) [1]: 92% | % inhibition per applied amount of ammonium ([2]; column head 1): 91% | % inhibition per applied amount of ammonium ([2]; column head 2): 62% | % inhibition per applied amount of ammonium ([2]; column head 4): 53% | % inhibition per applied amount of ammonium ([2]; column head 6): 45% | % inhibition per applied amount of ammonium ([2]; column head 8): 27%

Cc1c[nH]nc1C [3,4-Dimethylpyrazole, 3,4-dimethylpyrazole]
Loss in percent (loss of nitrification inhibitor during storage) [1]: 100% | Ø NH4-N amount in soil ([3]; 2 weeks after application): 82 kg/ha | Ø NO3-N amount in soil ([3]; 2 weeks after application): 54 kg/ha | Ø NH4-N amount in soil ([3]; 4 weeks after application): 70 kg/ha | Ø NO3-N amount in soil ([3]; 4 weeks after application): 43 kg/ha | Ø NH4-N amount in soil ([3]; 6 weeks after application): 71 kg/ha | Ø NO3-N amount in soil ([3]; 6 weeks after application): 44 kg/ha | Ø NH4-N amount in soil ([3]; 8 weeks after application): 37 kg/ha | Ø NO3-N amount in soil ([3]; 8 weeks after application): 28 kg/ha | biological effectiveness (in words) [3]: as good as or better than that of DCD | Ø NO3 amount in the basis of the stem of rape plants ([4]; 2 weeks after application): 8105 ppm | Ø NO3 amount in the basis of the stem of rape plants ([4]; 4 weeks after application): 6720 ppm | Ø NO3 amount in the basis of the stem of rape plants ([4]; 6 weeks after application): 4899 ppm | Ø NO3 amount in the basis of the stem of rape plants ([4]; 8 weeks after application): 4454 ppm | grain produce of winter wheat ([5]; location 2 (lean clay)): 97.8 dt/ha | % inhibition per applied amount of ammonium ([2]; column head 1): 88% | % inhibition per applied amount of ammonium ([2]; column head 2): 61% | % inhibition per applied amount of ammonium ([2]; column head 4): 48% | % inhibition per applied amount of ammonium ([2]; column head 6): 34% | % inhibition per applied amount of ammonium ([2]; column head 8): 27%

Cc1nn(CO)cc1Cl [N-hydroxy-4Cl-3MP, N-hydroxymethyl-4-chloro-3-methylpyrazole]
% inhibition per applied amount of ammonium ([2]; column head 1): 87% | % inhibition per applied amount of ammonium ([2]; column head 2): 58% | % inhibition per applied amount of ammonium ([2]; column head 4): 45% | % inhibition per applied amount of ammonium ([2]; column head 6): 30% | % inhibition per applied amount of ammonium ([2]; column head 8): 15%

Cc1cn(CO)nc1C [N-hydroxyl-3,4-DMP, N-hydroxymethyl-3,4-dimethylpyrazole]
% inhibition per applied amount of ammonium ([2]; column head 1): 85% | % inhibition per applied amount of ammonium ([2]; column head 2): 54% | % inhibition per applied amount of ammonium ([2]; column head 4): 40% | % inhibition per applied amount of ammonium ([2]; column head 6): 31% | % inhibition per applied amount of ammonium ([2]; column head 8): 10%

Cc1cc[nH]n1.O=P(O)(O)O [3-Methylpyrazole phosphate, reference compound]
Loss in percent (loss of nitrification inhibitor during storage) [1]: 55%

Cc1cn[nH]c1C.O=P(O)(O)O [3,4-Dimethylpyrazole phosphate, 3,4-dimethylpyrazolium dihydrogen Phosphate]
Loss in percent (loss of nitrification inhibitor during storage) [1]: 31%

N#CN=C(N)N [DCD, reference compound]
Ø NH4-N amount in soil ([3]; 2 weeks after application): 87 kg/ha | Ø NO3-N amount in soil ([3]; 2 weeks after application): 47 kg/ha | Ø NH4-N amount in soil ([3]; 4 weeks after application): 68 kg/ha | Ø NO3-N amount in soil ([3]; 4 weeks after application): 44 kg/ha | Ø NH4-N amount in soil ([3]; 6 weeks after application): 82 kg/ha | Ø NO3-N amount in soil ([3]; 6 weeks after application): 35 kg/ha | Ø NH4-N amount in soil ([3]; 8 weeks after application): 39 kg/ha | Ø NO3-N amount in soil ([3]; 8 weeks after application): 29 kg/ha | Ø NO3 amount in the basis of the stem of rape plants ([4]; 2 weeks after application): 8036 ppm | Ø NO3 amount in the basis of the stem of rape plants ([4]; 4 weeks after application): 7022 ppm | Ø NO3 amount in the basis of the stem of rape plants ([4]; 6 weeks after application): 4728 ppm | Ø NO3 amount in the basis of the stem of rape plants ([4]; 8 weeks after application): 4274 ppm | grain produce of winter wheat ([5]; location 2 (lean clay)): 94.3 dt/ha | grain produce of winter wheat ([5]; location 4 (loamy sand)): 52.6 dt/ha

Cc1cc[nH]n1 [3-Methylpyrazole, reference compound]
Loss in percent (loss of nitrification inhibitor during storage) [1]: 100% | % inhibition per applied amount of ammonium ([2]; column head 1): 90% | % inhibition per applied amount of ammonium ([2]; column head 2): 58% | % inhibition per applied amount of ammonium ([2]; column head 4): 45% | % inhibition per applied amount of ammonium ([2]; column head 6): 27% | % inhibition per applied amount of ammonium ([2]; column head 8): 22%

Cc1n[nH]cc1Cl [4-Chloro-3-methylpyrazole, 4-chloro-3-methylpyrazole]
Loss in percent (loss of nitrification inhibitor during storage) [1]: 100% | Ø NH4-N amount in soil ([3]; 2 weeks after application): 115 kg/ha | Ø NO3-N amount in soil ([3]; 2 weeks after application): 61 kg/ha | Ø NH4-N amount in soil ([3]; 4 weeks after application): 79 kg/ha | Ø NO3-N amount in soil ([3]; 4 weeks after application): 50 kg/ha | Ø NH4-N amount in soil ([3]; 6 weeks after application): 76 kg/ha | Ø NO3-N amount in soil ([3]; 6 weeks after application): 39 kg/ha | Ø NH4-N amount in soil ([3]; 8 weeks after application): 40 kg/ha | Ø NO3-N amount in soil ([3]; 8 weeks after application): 28 kg/ha | biological effectiveness (in words) [3]: as good as or better than that of DCD | Ø NO3 amount in the basis of the stem of rape plants ([4]; 2 weeks after application): 8112 ppm | Ø NO3 amount in the basis of the stem of rape plants ([4]; 4 weeks after application): 6629 ppm | Ø NO3 amount in the basis of the stem of rape plants ([4]; 6 weeks after application): 4774 ppm | Ø NO3 amount in the basis of the stem of rape plants ([4]; 8 weeks after application): 4276 ppm | grain produce of winter wheat ([5]; location 4 (loamy sand)): 56.0 dt/ha | % inhibition per applied amount of ammonium ([2]; column head 1): 88% | % inhibition per applied amount of ammonium ([2]; column head 2): 66% | % inhibition per applied amount of ammonium ([2]; column head 4): 48% | % inhibition per applied amount of ammonium ([2]; column head 6): 32% | % inhibition per applied amount of ammonium ([2]; column head 8): 21%
